Laboratory results from ChEMBL document CHEMBL1201862, “PubChem BioAssay data set” (2004).
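A five-concentration, 48-hour dose response in 96-well plates underlies each endpoint, interpolated linearly between surrounding concentrations. At the GI50, growth is halved.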 Activity calls are given as the source filed them. Cut-off read from the data, not from the text of the source: active = GI50 up to about 1.1 µM and inactive = higher.

How the values were obtained:
Experiment in all cases: inhibition of tumour cell growth, NCI panel, 48 h
BT-549 = system: BT-549
K562 = system: K562
MOLT-4 = system: MOLT-4
A549 = system: A549
SW-620 = system: SW-620
MCF7 = system: MCF7
UACC-257 = system: UACC-257
HCC 2998 = system: HCC 2998
NCI-H522 = system: NCI-H522
HCT-15 = system: HCT-15
OVCAR-8 = system: OVCAR-8
NCI-H460 = system: NCI-H460
DU-145 = system: DU-145
COLO 205 = system: COLO 205
OVCAR-4 = system: OVCAR-4
RPMI-8226 = system: RPMI-8226
SK-MEL-2 = system: SK-MEL-2
NCI-H23 = system: NCI-H23
OVCAR-3 = system: OVCAR-3
SF-539 = system: SF-539

Structure (SMILES) | GI50 (BT-549) | GI50 (K562) | GI50 (MOLT-4) | GI50 (A549) | GI50 (SW-620) | GI50 (MCF7) | GI50 (UACC-257) | GI50 (HCC 2998) | GI50 (NCI-H522) | GI50 (HCT-15) | GI50 (OVCAR-8) | GI50 (NCI-H460) | GI50 (DU-145) | GI50 (COLO 205) | GI50 (OVCAR-4) | GI50 (RPMI-8226) | GI50 (SK-MEL-2) | GI50 (NCI-H23) | GI50 (OVCAR-3) | GI50 (SF-539)
N#CC1(C#N)C(C#N)(C#N)C1(C#N)C(N)=O | > 100 µM (inactive) | > 100 µM (inactive) | > 100 µM (inactive) | > 100 µM (inactive) | > 100 µM (inactive) | > 100 µM (inactive) | > 100 µM (inactive) | > 100 µM (inactive) | > 100 µM (inactive) | > 100 µM | > 100 µM (inactive) | > 100 µM (inactive) | > 100 µM (inactive) | > 100 µM (inactive) | > 100 µM (inactive) | > 100 µM (inactive) | > 100 µM (inactive) | > 100 µM (inactive) |  | 
Cc1cc2c3c(nc4ccccc42)C(=O)c2ccccc2-c3n1 | 16.9 µM (inactive) | 0.839 µM (active) | 3.34 µM (inactive) | 7.1 µM (inactive) | 9.48 µM (inactive) | 10.5 µM (inactive) | 22.8 µM (inactive) | 20.1 µM (inactive) | 1.68 µM (inactive) | 1.35 µM | 5.52 µM (inactive) |  | 23.5 µM (inactive) | 16.8 µM (inactive) | 25.4 µM (inactive) | 3.14 µM (inactive) | 17.9 µM (inactive) | 2.4 µM (inactive) | 0.135 µM (active) | 19.3 µM (inactive)
Nc1ncnc2c1ncn2[C@H]1CC[C@@H](NO)C1 | > 100 µM (inactive) | > 100 µM (inactive) | > 100 µM (inactive) | > 100 µM (inactive) | > 100 µM (inactive) | > 100 µM (inactive) | > 100 µM (inactive) | > 100 µM (inactive) | > 100 µM (inactive) | > 100 µM | > 100 µM (inactive) | > 100 µM (inactive) | > 100 µM (inactive) | > 100 µM (inactive) | > 100 µM (inactive) | > 100 µM (inactive) | > 100 µM (inactive) | > 100 µM (inactive) | > 100 µM (inactive) | > 100 µM (inactive)
C[C@H](CC[C@@H](O)C(C)(C)O)[C@H]1CC[C@@]2(C)[C@@H]3CC=C4[C@@H](CC[C@H](OC5OC(CO)C(O)C(O)C5O)C4(C)C)[C@]3(C)C(=O)C[C@]12C (stereo partly drawn) | 56.5 µM (inactive) | 18.9 µM (inactive) | 21.1 µM (inactive) | 37.2 µM (inactive) | 4.03 µM (inactive) | 51.5 µM (inactive) | 33.7 µM (inactive) | 89.7 µM (inactive) | 37.6 µM (inactive) | 67.9 µM | > 100 µM (inactive) | 52.4 µM (inactive) | 39 µM (inactive) | 48.9 µM (inactive) | 45.3 µM (inactive) |  | 26.3 µM (inactive) | > 100 µM (inactive) | 65 µM (inactive) | > 100 µM (inactive)
O=C1[C@H](O)[C@@H]2C(O)O[C@H]3[C@@H]2N1C[C@H]3[Si](c1ccccc1)(c1ccccc1)c1ccccc1 (stereo partly drawn) | > 100 µM (inactive) | > 100 µM (inactive) | > 100 µM (inactive) | > 100 µM (inactive) | > 100 µM (inactive) | > 100 µM (inactive) | > 100 µM (inactive) | > 100 µM (inactive) |  | > 100 µM | > 100 µM (inactive) | > 100 µM (inactive) | > 100 µM (inactive) | > 100 µM (inactive) | > 100 µM (inactive) | > 100 µM (inactive) | > 100 µM (inactive) | > 100 µM (inactive) | > 100 µM (inactive) | > 100 µM (inactive)
CC(=O)n1cc(C2CC23N=C(c2ccccc2)OC3=O)c2ccccc21 (stereo not drawn) | 14.2 µM (inactive) | 13.7 µM (inactive) |  | 21.7 µM (inactive) | 19.8 µM (inactive) | 19.1 µM (inactive) | 15.7 µM (inactive) | 13.1 µM (inactive) | 15.3 µM (inactive) | 20.3 µM | 16.6 µM (inactive) | 22.4 µM (inactive) | 16 µM (inactive) | 18.4 µM (inactive) | 16.3 µM (inactive) | 7.87 µM (inactive) | 21.5 µM (inactive) | 16.5 µM (inactive) | 18 µM (inactive) | 19.5 µM (inactive)
C/C=C\C(CC(=O)NCCC1CN(S(=O)(=O)c2ccc(C)cc2)c2ccccc21)CC(=O)OC (stereo not drawn) | > 100 µM (inactive) | > 100 µM (inactive) | > 100 µM (inactive) | > 100 µM (inactive) | > 100 µM (inactive) | > 100 µM (inactive) | > 100 µM (inactive) | > 100 µM (inactive) | > 100 µM (inactive) | > 100 µM | > 100 µM (inactive) | > 100 µM (inactive) | > 100 µM (inactive) | > 100 µM (inactive) | > 100 µM (inactive) | > 100 µM (inactive) | > 100 µM (inactive) | > 100 µM (inactive) | > 100 µM (inactive) | 
